This is an account of results in patent US20090238852A1, “METHODS FOR CONTROLLING INTRACELLULAR CALCIUM LEVELS ASSOCIATED WITH AN ISCHEMIC EVENT” (University of Utah Research Foundation, priority 2008, published 2009).

The conditions of data set [1]: in vivo.
Description: A study was performed in eight (8) healthy adult male and female subjects to assess the effects of a bolus dose and 72 hour infusion of 2-O, 3-O desulfated heparin. The study was a Phase I study with a three day treatment period. Doses were adjusted to maintain an aPTT level of 40-45 seconds. Subjects were between the ages of 18 and 60, were not pregnant, and were normal in body weight. They all had normal coagulation function and hemoglobin values at baseline.
Subjects received an initial bolus of 8 mg/kg of ODSH over 15 minutes, followed by 72 hours continuous infusion beginning at 0.58 mg/kg/hr. For each subject ODSH as a 50 mg/ml formulation was diluted with normal saline and administered as a bolus infused over 15 minutes containing the calculated amount of ODSH the subject was to receive, followed by infusion of ODSH diluted in saline. The infusion dose was adjusted to maintain an aPTT of 40-45 seconds. Immediately before infusion and after the start of each infusion, blood was drawn at periodic times (over a total 72 hour period) to monitor the effect of infusion on the following laboratory studies: activated partial thromboplastin time (aPTT), prothrombin time (PT), activated clotting time (ACT), and ODSH plasma level. Serum chemistries and a complete blood count were checked immediately before infusion and again periodically for up to 240 hours later. Using values for aPTT and ODSH levels, pharmacokinetic parameters were calculated by noncompartmental methods using a commercial software program (PhAST 2.3-001). The following pharmacokinetic parameters were calculated as above: Cmax; Kel; tmax; AUC O-t; AUCinf, t1/2; CL; and Vdss.
The test system of data set [2] is rabbit ventricular myocytes. As to the kind of experiment: Intracellular sodium [Na^+]i in ventricular myocytes during PMI, Sodium Green flow cytometry. In kind it is cell-based. Particulars: PMI + ODSH 100 μg/mL; n = 7; PMI alone 11.16 ± 0.90, Hepes 6.04 ± 0.25. Here is the method: In these studies, intracellular calcium concentration [Ca^++]i was measured by flow cytometry. Measurement of isolated mouse and rabbit ventricular myocyte [Ca^2+]i and [Na^+]i by flow cytometry has been described (Zhang et al., J. Cardiovasc. Pharmacol. 51: 443-449 (2008); Li et al., J. Mol. Cell. Cardiol. 33: 2145-2155 (2001)). [Ca^++]i was measured with the Ca^++ sensitive fluorescent probe, Fluo 3-AM (Molecular Probes, Eugene, Oreg.), using a FACScan (Becton-Dickinson, MA). The cells were exposed to 4 μmol/L Fluo-3 AM for 30 min at 37° C. The cells were then separated into aliquots. After 40 min of wash, the cells were exposed to paced metabolic ischemia (MI) for 45 min at 37° C. Metabolic ischemia was accomplished by incubating cells in a glucose-free MKRBB solution (pH 7.40) containing 2 mmol/L sodium cyanide (NaCN) to impair mitochondrial and glycolytic generation of ATP. […] Approximately 2×10^3 myocytes were analyzed to calculate average emission fluorescence intensity in each sample. […] Only those cells with low fluorescence intensity at 670 nm (PI-negative cells or viable cells) were included in the comparative analysis of [Ca^++]i. The sample [Ca^2+]i values were calculated by Mn^2+ quenching (Sugishita et al, 2001) and [Na^+]i values by comparison with a standard curve of varied [Na^+]i versus Na Green fluorescence. […] Results were expressed as means±SEM. […]
On the technique in general: Flow cytometry measures light scatter and fluorescence of single cells or particles in a stream.

In the case of 2-O, 3-O desulfated heparin [ODSH], in data set [1], the “Platelet count, Day After Infusion” value is 261 ± 37 thousands/μL blood; the “Platelet count, Day Before Infusion” value is reported as 261 ± 40 thousands/μL blood; the “Platelet count, Infusion Day 2” value came out at 258 ± 39 thousands/μL blood; the “Platelet count, Infusion Day 3” value was found to be 272 ± 42 thousands/μL blood. Further, in data set [1], the ecchymosis result is recorded as “Mild ecchymosis was reported in one subject”; the “transient elevations in serum ALT and AST” value was “observed in seven subjects”. In data set [2], the [Na^+]i came to 7.85 ± 0.45 mM.
